Paper PMC12073679, “Drug Repurposing to Inhibit Oncostatin M in Crohn’s Disease” (Molecules, 2025)

Biological target: T1, recombinant human oncostatin M (Homo sapiens, UniProt P13725)
T1 construct: gene OSM; labelled with RED-NHS 2nd generation dye for MST
T1 sequence (P13725 26-221): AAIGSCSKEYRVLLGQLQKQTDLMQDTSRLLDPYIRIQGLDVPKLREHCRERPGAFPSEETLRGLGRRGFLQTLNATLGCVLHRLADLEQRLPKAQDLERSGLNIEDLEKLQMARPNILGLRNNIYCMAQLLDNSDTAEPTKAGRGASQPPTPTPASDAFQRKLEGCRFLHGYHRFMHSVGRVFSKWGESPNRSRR
Assay: microscale thermophoresis
Format: binding

CC1(C)[C@@H]2CC[C@@]1(CS(=O)(=O)O)C(=O)/C2=C/c1ccc(/C=C2/C(=O)[C@]3(CS(=O)(=O)O)CC[C@H]2C3(C)C)cc1 [1a, Ecamsule]
Kd: 11.4 ± 2.83 µM
